The series has as its system Caco-2 monolayer permeability, A-to-B, LC-MS/MS. The series can be described thus: Inhibitors of HPGD: Caco-2 Cell Permeability Profiling. The following applies: hits give high values. The text has this:
Human 15-Hydroxyprostaglandin dehydrogenase (HPGD) catalyzes the inactivation of prostaglandin E2, and plays a major role in cancer biology by antagonizing the oncogenic potential of cyclooxygenase type 2 (COX2). Assays are available, based on absorbance/fluorescence increase of NADH with the substrate 15-OH prostaglandin E2. This bioassays provides profiling data on Caco-2 cell permeability of leads compounds developed for the HPGD project. This in vitro model is often predictive of in vivo absorption of the compound across the intestinal lining by using a Caco2-cell line and measuring the compound's rate of transport […]. NIH Chemical Genomics Center [NCGC] Structural Genomics Consortium [SGC]
1. Buffer Preparation: Prepare 1M HEPES: add 23.83g HEPES to 100ml of 0.85% NaCl Prepare HBSS+ buffer: add 12.8ml of 1M HEPES in 0.85% NaCl to 500ml HBSS buffer. 2. Take out the compounds from -80 degrees C, ultrasonicate or pre-warm for a few minutes to thaw the compounds. 3. […] The T0, LY and T90, LY plates are read by FlexStation 3 at excitation of 485 nm and emission of 535 nm to determine LY permeability. […]

Each structure is given as a SMILES string.

For the compound `Cc1cccc(-n2cnc3cc(C(=O)N4CCCCC4)ccc32)c1`, the permeability Papp is 15 10^-6 cm/s.

On to `Cc1cc(-c2nnc3n2CCCCC3)c(C)n1-c1ccccc1`, for which the permeability Papp is 21 10^-6 cm/s.

(Values after PubChem BioAssay AID504629 (National Center for Advancing Translational Sciences (NCATS), 2011).)
